Activity calls are given as the source filed them.
Key:
[1] = target: T1, Intestinal-type alkaline phosphatase (Homo sapiens, UniProt P09923); experiment: human intestinal alkaline phosphatase activators, dose response, biochemical, luminescence, uHTS hits (AID 463120); assay type: functional
cells [2] = assay type: functional
[3] = target: T1, Intestinal-type alkaline phosphatase; experiment: activation of human intestinal alkaline phosphatase – biochemical, luminescent, uHTS hits, set 2, dose response (AID 488817); assay type: functional;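 further: potency of activators that raise enzyme activity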
[4] = target: T2, Alkaline phosphatase, tissue-nonspecific isozyme (Homo sapiens, UniProt P05186); experiment: activation of tissue-nonspecific alkaline phosphatase – biochemical, TNAP isozyme, human IAP uHTS hits, selectivity assay for human IAP activator project, dose response (AID 488886); assay type: functional;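 further: potency of compounds raising TNAP activity as a selectivity check on IAP activators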
T2 sequence (P05186 whole entry): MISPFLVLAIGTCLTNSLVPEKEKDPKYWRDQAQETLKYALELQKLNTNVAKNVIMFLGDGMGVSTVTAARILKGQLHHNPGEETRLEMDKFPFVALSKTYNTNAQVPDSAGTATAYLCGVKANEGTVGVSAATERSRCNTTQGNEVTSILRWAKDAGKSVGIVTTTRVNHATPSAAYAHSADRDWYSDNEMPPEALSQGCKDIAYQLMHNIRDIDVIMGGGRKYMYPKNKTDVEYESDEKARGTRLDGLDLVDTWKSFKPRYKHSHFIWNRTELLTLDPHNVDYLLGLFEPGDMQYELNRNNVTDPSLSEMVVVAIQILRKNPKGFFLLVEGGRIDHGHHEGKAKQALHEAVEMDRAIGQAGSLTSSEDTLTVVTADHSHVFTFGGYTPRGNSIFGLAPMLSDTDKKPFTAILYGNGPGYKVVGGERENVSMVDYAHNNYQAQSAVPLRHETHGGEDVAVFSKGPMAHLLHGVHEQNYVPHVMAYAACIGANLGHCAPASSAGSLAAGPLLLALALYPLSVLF

[5] = target: T2, Alkaline phosphatase, tissue-nonspecific isozyme
[6] = target: Intestinal-type alkaline phosphatase (Mus musculus, UniProt P24822); experiment: PubChem AID 488874; assay type: functional
[7] = target: T3, Kappa-type opioid receptor (Homo sapiens, UniProt P41145); assay type: functional
[8] = target: T4, Heat shock factor protein 1 (Mus musculus, UniProt P38532); experiment: decrease of HSF1-responsive luciferase luminescence – cell-based, NIH3T3, dose retest, confirmation (AID 2382); assay type: functional;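 further: NIH3T3 fibroblasts with HSF1-driven luciferase reporter stressed by proteasome inhibitor MG132; luminescence from HSF1-driven luciferase expression after 8 hours of MG132 stress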
T4 sequence (P38532 whole entry): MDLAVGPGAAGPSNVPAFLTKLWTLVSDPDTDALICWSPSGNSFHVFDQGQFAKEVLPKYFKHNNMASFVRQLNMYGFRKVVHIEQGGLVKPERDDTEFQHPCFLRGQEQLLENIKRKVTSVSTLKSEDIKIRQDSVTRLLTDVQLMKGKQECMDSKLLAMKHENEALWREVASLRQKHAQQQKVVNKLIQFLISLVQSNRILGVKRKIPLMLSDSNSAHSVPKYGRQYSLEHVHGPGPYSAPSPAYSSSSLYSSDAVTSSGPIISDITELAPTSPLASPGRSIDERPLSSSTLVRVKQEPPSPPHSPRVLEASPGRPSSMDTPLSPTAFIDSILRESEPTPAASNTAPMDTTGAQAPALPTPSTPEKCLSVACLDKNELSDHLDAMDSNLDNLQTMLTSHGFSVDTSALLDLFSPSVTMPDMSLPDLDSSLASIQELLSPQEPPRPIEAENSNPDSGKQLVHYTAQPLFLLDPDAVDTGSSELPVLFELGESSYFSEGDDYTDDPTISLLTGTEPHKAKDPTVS

[9] = HEK-293T viability loss after treatment – luminescence, T-cell screen hits, cytotoxicity control for TCR NF-kB inhibitor project, dose response (AID 489026); assay type: functional, cell-based;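 further: cells exposed to compound about 14 hours before the viability readout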
INS1 = experiment: INS-1E survival protection against cytokine death – cell-based, luminescence, retest, dose response (AID 449756); assay type: functional; details: Rattus norvegicus;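 further: cell death triggered by IL-1 beta plus TNF-alpha plus IFN-gamma mixture; protective hits raise ATP signal compared with cytokine alone wells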
[10] = Trypanosoma cruzi growth suppression in host cells – NIH3T3 host cells, beta-gal luminescence, confirmation (AID 2044); assay type: functional, cell-based;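 further: intracellular parasites grown in NIH/3T3 mouse fibroblasts as host cells; luminescent beta-galactosidase reporter signal from transgenic T. cruzi replicating inside host cells; inhibitors lower the luminescence signal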
Beta-galactosidase = Beta-galactosidase (Escherichia coli, UniProt Q8VNN2); assay type: functional
[11] = target: Heat shock protein HSP 90-alpha (Homo sapiens, UniProt P07900); assay type: functional, organism-based
Nonstructural protein 1 = Nonstructural protein 1 (Influenza A virus, UniProt Q194T2); assay type: functional, Influenza A virus (A/California/07/2009(H1N1))
[12] = Counterscreen for AddAB inhibitors: absorbance-based bacterial cell-based high throughput dose response assay for inhibitors of bacterial viability. [Related pubchem assays (depositor defined):AID435030, AID449728, AID449731, AID488942, AID488955, AID488956]; assay type: functional
cells [13] = assay type: functional, cell-based
[14] = alpha-synuclein stem-loop luciferase translation blockers – H4 neuroglioma cells, luminescence, confirmation (AID 1988); assay type: functional, cell-based
[15] = target: T3, Kappa-type opioid receptor; assay type: functional; remark: listed apart in the source
[16] = Luminescence Cell-Based Dose Response HTS to Identify Inhibitors of 5'UTR Stem-Loop Driven Prion Protein mRNA Translation in H4 Neuroglioblastoma Cells. [Related pubchem assays: 1827 (Project Summary), 1813 (Primary HTS)]; assay type: functional
cells [17] = assay type: functional, cell-based; remark: listed apart in the source
Exodeoxyribonuclease V = Exodeoxyribonuclease V (Escherichia coli (strain K12), UniProt P04993+P07648+P08394); experiment: RecBCD inhibition via phage-restricted bacterial growth – absorbance, V66 E. coli, mutant T4 phage, counter-screen for AddAB inhibitor project, dose response (AID 492957); assay type: functional, cell-based, Escherichia coli str. K-12 substr. MG1655
HEK293 = experiment: EBV LMP1 TES2 canonical NF-kB signalling blockers – cell-based, HEK293, luciferase, cherry-pick, dose response (AID 588343); assay type: functional; details: Homo sapiens
[18] = NIH3T3 cell viability loss – ATP luminescence, mouse fibroblasts, counter-screen, dose response (AID 2010); assay type: functional, cell-based;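 further: cells exposed to compound for about 90 hours before reading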
[19] = luciferase reporter signal suppression in cells – H4 neuroglioma cells, luminescence, dose response (AID 1990); assay type: functional, cell-based

T3 sequence (P41145 whole entry): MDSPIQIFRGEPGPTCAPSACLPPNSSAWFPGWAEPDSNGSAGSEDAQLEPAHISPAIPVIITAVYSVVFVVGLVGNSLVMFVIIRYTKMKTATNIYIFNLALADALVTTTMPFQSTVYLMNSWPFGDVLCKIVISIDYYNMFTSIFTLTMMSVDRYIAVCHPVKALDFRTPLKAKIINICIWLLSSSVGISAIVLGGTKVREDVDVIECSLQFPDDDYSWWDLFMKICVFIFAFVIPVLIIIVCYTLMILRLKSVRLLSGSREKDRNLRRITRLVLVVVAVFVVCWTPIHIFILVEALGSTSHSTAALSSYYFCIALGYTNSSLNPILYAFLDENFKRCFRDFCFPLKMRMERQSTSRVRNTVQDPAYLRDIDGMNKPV
T1 sequence (P09923 whole entry): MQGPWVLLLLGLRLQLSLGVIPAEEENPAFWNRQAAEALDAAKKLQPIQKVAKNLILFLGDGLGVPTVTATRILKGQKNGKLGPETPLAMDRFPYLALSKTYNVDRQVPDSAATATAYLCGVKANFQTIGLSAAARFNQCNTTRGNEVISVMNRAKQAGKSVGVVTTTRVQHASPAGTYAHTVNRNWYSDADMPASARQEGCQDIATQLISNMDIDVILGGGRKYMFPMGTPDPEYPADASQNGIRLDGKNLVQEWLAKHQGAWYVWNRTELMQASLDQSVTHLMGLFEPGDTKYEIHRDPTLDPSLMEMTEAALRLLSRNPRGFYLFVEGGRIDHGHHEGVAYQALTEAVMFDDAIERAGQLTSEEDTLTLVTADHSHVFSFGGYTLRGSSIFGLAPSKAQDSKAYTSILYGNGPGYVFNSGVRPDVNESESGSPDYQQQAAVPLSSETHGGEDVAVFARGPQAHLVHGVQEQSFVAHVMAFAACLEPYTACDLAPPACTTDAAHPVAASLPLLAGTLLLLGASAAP
Chain of Intestinal-type alkaline phosphatase (Mus musculus, UniProt P24822) (P24822 whole entry): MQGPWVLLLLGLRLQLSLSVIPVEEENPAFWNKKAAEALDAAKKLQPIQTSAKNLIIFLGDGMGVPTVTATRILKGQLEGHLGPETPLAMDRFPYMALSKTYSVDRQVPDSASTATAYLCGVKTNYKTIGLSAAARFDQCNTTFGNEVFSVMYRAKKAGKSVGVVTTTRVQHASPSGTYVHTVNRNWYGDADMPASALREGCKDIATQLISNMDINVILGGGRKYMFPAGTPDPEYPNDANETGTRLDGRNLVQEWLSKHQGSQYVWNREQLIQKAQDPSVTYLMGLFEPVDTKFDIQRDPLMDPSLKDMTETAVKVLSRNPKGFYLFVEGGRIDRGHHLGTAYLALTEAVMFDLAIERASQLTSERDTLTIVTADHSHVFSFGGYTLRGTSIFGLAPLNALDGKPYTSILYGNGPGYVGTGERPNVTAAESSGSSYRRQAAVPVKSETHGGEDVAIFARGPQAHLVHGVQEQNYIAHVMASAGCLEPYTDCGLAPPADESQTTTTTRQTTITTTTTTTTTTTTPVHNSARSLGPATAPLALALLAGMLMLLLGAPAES
Chain of Nonstructural protein 1 (Q194T2 whole entry): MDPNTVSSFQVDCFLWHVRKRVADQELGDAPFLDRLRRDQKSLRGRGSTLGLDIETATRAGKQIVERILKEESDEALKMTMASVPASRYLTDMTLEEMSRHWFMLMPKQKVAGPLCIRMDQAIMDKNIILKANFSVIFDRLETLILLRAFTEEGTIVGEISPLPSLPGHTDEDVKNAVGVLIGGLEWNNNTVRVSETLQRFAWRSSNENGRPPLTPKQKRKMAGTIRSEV
Chain of Beta-galactosidase (Q8VNN2 whole entry): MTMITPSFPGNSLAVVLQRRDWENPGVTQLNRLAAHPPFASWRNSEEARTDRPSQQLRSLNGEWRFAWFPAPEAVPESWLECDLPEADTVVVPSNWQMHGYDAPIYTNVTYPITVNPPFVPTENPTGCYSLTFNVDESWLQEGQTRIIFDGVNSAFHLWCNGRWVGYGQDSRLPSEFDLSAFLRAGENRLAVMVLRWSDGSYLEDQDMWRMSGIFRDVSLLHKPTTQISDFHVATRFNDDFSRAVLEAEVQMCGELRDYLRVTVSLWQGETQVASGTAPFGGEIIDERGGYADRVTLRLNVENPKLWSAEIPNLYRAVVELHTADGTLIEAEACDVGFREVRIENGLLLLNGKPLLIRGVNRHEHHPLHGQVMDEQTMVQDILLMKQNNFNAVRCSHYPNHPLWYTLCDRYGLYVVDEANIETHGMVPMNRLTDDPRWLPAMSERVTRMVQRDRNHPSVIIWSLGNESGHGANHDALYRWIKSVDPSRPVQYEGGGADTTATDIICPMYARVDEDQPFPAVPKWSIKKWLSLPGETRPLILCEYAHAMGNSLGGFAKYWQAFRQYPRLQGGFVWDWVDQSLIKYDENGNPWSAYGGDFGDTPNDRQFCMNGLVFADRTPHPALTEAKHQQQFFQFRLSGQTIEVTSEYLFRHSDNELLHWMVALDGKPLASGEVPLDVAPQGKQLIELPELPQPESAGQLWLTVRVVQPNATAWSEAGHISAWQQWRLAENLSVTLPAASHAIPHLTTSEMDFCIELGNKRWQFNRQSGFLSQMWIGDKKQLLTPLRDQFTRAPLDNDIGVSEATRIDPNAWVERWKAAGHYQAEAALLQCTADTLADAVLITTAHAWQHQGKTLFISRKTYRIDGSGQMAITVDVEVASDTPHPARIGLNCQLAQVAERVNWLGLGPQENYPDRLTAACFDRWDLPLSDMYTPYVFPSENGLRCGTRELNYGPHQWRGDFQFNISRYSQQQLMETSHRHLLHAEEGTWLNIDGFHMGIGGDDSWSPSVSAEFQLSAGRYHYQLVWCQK

C=CCN1C(=O)C2(NNc3ccccc3O2)c2ccccc21 (centres undefined)
EC50 [1]: 11.3 µM (active) | IC50 (cells [2]): 11.7 µM (active) | EC50 [3]: 0.514 µM (active) | EC50 [4]: 0.636 µM (active) | EC50 [5]: < 0.195 µM (not active) | IC50 [6]: 14.2 µM (active)

Oc1ccc2ccccc2c1N=Nc1ccccn1
IC50 [7]: 5.12 µM (active) | EC50 [8]: 11.4 µM (active) | IC50 [9]: > 80 µM (inactive) | AC50 (INS1): 0.746 µM (active) | EC50 [10]: 0.471 µM (active) | EC50 (Beta-galactosidase): 25.7 µM (active) | AC50 [11]: 2.7 µM (active) | IC50 (Nonstructural protein 1): 13.9 µM (active) | IC50 [12]: > 118 µM (inactive) | EC50 (cells [13]): 24 µM (active) | EC50 [14]: 2.29 µM (active) | IC50 [15]: > 32 µM | EC50 [16]: 2.43 µM (active) | EC50 (cells [17]): 41 µM (active) | IC50 (Exodeoxyribonuclease V): > 118 µM (inactive) | AC50 (HEK293): 7.41 µM (active) | EC50 [18]: 3.4 µM (active) | EC50 [19]: 10.8 µM (active)

— ChEMBL document CHEMBL1201862, “PubChem BioAssay data set” (2004)
